Data as given in paper PMC12718081 (ACS Infectious Diseases, 2025).
Several values for one entry are separate records, joined by “and”; a condition that tells them apart may be missing. Identical values can stand only once. Like-named read-outs stand apart in the source and are kept apart here.

Legend:
[1] = system: juvenile schistosomes (21 days p.i.); assay: XTT juvenile viability assay; format: cell-based, Schistosoma mansoni; conditions: 48 h; for parasite metabolic activity compared to the DMSO control group (XTT): 100 μM
[2] = system: adult schistosomes (male and female worms); assay: Adult worm ex vivo high-content image-based motility assay; format: cell-based, Schistosoma mansoni
in vitro = conditions: human, HepG2 cytotoxicity (CC50)
Description: (§1) Next, we conducted a more detailed investigation by performing dose–response assays with each compound on HepG2 hepatic epithelial cells, as the liver is one of the major organs affected in intestinal schistosomiasis.
(§2) More details are provided in the Supporting Information.
(§3) Adult worm ex-vivo high-content assay
(§4) Male and female worms were placed in 96-well microplates (one worm per well) and incubated […]
(§5) to 72 hours. Brightfield timelapse images (100 images, 0.3-second intervals) were captured from each well before, immediately after, and every 24 hours following compound addition using an ImageXpress Micro Confocal High Content System equipped with a 2x objective. Image analysis was performed through a custom pipeline in CellProfiler software (v. 4.2.1, Windows OS).57 During analysis, the area of each worm and its displacement between consecutive image captures (i.e., images taken at successive time points) were measured using the parameters “Area” and “False Negative Rate” from the MeasureObjectSizeShape and MeasureObjectOverlap modules, respectively. These measurements were then modeled by a multilevel generalized linear statistical model. The effects of the experimental treatments on parasite motility were estimated with the integrated nested Laplace approximation (INLA) method, available in the INLA package of R (https://www.r-inla.org). The half-maximal inhibitory concentration (EC50) of each compound was calculated based on the worms' estimated motility using the […] 4-parameter logistic equation in GraphPad Prism version 9.0.0 for Windows (GraphPad Software, Boston, MA, USA; www.graphpad.com). […]
(§6) either at a fixed concentration (10 µM) or across a range of concentrations (0.0001–300 µM), or with DMSO as a negative control. Two hours before the end of the experiment (t0), a resazurin solution (final concentration: 0.01 mg/mL) was added to each well and the first fluorescence […]
(§7) reader. At the end of the incubation (t1), a second reading was performed. The fluorescence attributed solely to resorufin was measured by subtracting the fluorescence readings at t0 from those at t1. The results were expressed as percentual cell viability considering negative control

[3] = system: HepG2 hepatic epithelial cells; assay: in vitro; conditions: for Selectivity Index (CC50/EC50), Female: HepG2 CC50 / female worm motility EC50, 48 h; for Selectivity Index (CC50/EC50), Male: HepG2 CC50 / male worm motility EC50, 48 h
Description: as §1, §2, §3, §4, §5, §6, §7

Sm.TRPMPZQ (wild-type) = Sm.TRPMPZQ (wild-type) (Schistosoma mansoni, UniProt A0A5K4F0X5); assay: Ca2+ reporter (FLIPR) activation assay, wild-type Sm.TRPMPZQ in HEK293 cells; format: cell-based; conditions: for EC50: 0.001 to 100 μM; for Emax: read-out: Bmax, wild-type Sm.TRPMPZQ activation
How it was run: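 Wild-type Sm.TRPMPZQ in HEK293 cells, with untransfected HEK293 as control. Cells dye-loaded in HBSS/20 mM HEPES buffer with 2.5 mM probenecid, 0.3% BSA and 0.03% ascorbic acid (40 min 37 °C, then 20 min RT). FLIPR Ca²⁺ flux at room temperature: 20 s baseline, then drug addition, then 250 s recording.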

Eg.TRPMPZQ = Eg.TRPMPZQ (Echinococcus granulosus, UniProt W6UVV9); assay: cell-based; conditions: HEK293, Ca2+ reporter, mean ± standard deviation; read-out: Bmax, Eg.TRPMPZQ activation
Fh.TRPMPZQ = assay: Ca2+ reporter (FLIPR) activation assay, Fh.TRPMPZQ in HEK293 cells; format: cell-based, Fasciola hepatica; conditions: at the tested concentrations, data not shown
Description: (§8) Finally, selectivity for Sm.TRPMPZQ was assessed by profiling responses on the F. hepatica (Fh.TRPMPZQ) and E. granulosus (Eg.TRPMPZQ) TRPMPZQ orthologs, as well as the schistosome TRPM paralog Sm.TRPMMCLZ, a distinct TRPM channel activated by meclonazepam. Meclonazepam is an anthelmintic benzodiazepine known for its toxicity to juvenile schistosome worms.
(§9) The Ca^2+ reporter assay was performed using a Fluorescence Imaging Plate Reader (FLIPR) system, as described in the Supporting Information. […]
(§10) The half-maximal inhibitory
(§11) Windows (GraphPad Software, Boston, MA, USA; www.graphpad.com). […]
(§12) with DMSO as a negative control. […]
(§13) reader. […] The fluorescence
(§14) Untransfected HEK293 cells were used as a control.
(§15) 10% fetal bovine serum (FBS). […]
(§16) atmosphere containing 5% CO₂. Following incubation, the growth medium was removed and […]
(§17) buffer containing 2.5 mM probenecid in HBSS (with Ca²⁺ and Mg²⁺), 20 mM HEPES, 0.3% BSA (Sigma, A7030), and 0.03% L-ascorbic acid (Sigma). Cells were incubated for 40 minutes at 37 °C and subsequently for 20 minutes at room temperature. A total of seven PZQ derivatives were tested, using racemic PZQ included as a positive control on each assay plate. Drug dilutions were prepared in assay buffer without dye and probenecid and dispensed into separate flat-bottom 384-well plates. Calcium flux measurements were performed at room temperature using a […]
(§18) instrument (Molecular Devices). Baseline fluorescence was recorded for 20 seconds, followed by the addition of 5 µL of each drug solution, after which fluorescence was measured continuously for 250 seconds. […]

Sm.TRPMMCLZ = assay: Ca2+ reporter (FLIPR) activation assay, Sm.TRPMMCLZ in HEK293 cells; format: cell-based, Schistosoma mansoni; conditions: at the tested concentrations, data not shown
Description: as §8, §9, §10, §11, §12, §13, §14, §15, §16, §17, §18

juvenile schistosomes = assay: Microscopy analysis of juvenile morphology and motility (viability score 0-3); conditions: 72 h; for number of juvenile worms with viability score 0 / number of juvenile worms with viability score 1 / number of juvenile worms with viability score 2 / number of juvenile worms with viability score 3: 10 μM, Table S1
[4] = Schistosoma mansoni, 0 h, female adult worms, 0 h (immediately after addition), single experiment or geometric mean, read-out: Female worm motility inhibition (EC50)
[5] = Schistosoma mansoni, 0 h, male adult worms, 0 h (immediately after addition), single experiment or geometric mean, read-out: Male worm motility inhibition (EC50)
[6] = Schistosoma mansoni, 0 h, male, 0 h, individual experiments, read-out: Male worm motility inhibition (EC50), values of independent experiments
[7] = Schistosoma mansoni, 24 h, female adult worms, 24 h, single experiment or geometric mean, read-out: Female worm motility inhibition (EC50)
[8] = Schistosoma mansoni, 24 h, male adult worms, 24 h, single experiment or geometric mean, read-out: Male worm motility inhibition (EC50)
[9] = Schistosoma mansoni, 24 h, male, 24 h, individual experiments, read-out: Male worm motility inhibition (EC50), values of independent experiments
[10] = Schistosoma mansoni, 48 h, female adult worms, 48 h, single experiment or geometric mean, read-out: Female worm motility inhibition (EC50)
[11] = Schistosoma mansoni, 48 h, male adult worms, 48 h, single experiment or geometric mean, read-out: Male worm motility inhibition (EC50)
[12] = Schistosoma mansoni, 72 h, female adult worms, 72 h, single experiment or geometric mean, read-out: Female worm motility inhibition (EC50)
[13] = Schistosoma mansoni, 72 h, male adult worms, 72 h, single experiment or geometric mean, read-out: Male worm motility inhibition (EC50)
[14] = Schistosoma mansoni, 72 h, male, 72 h, individual experiments, read-out: Male worm motility inhibition (EC50), values of independent experiments
[15] = female, 0 h, individual experiments, read-out: Female worm motility inhibition (EC50), values of independent experiments
[16] = female, 48 h, individual experiments, read-out: Female worm motility inhibition (EC50), values of independent experiments
[17] = male, 0 h, individual experiments, read-out: Male worm motility inhibition (EC50), values of independent experiments
[18] = male, 24 h, individual experiments, read-out: Male worm motility inhibition (EC50), values of independent experiments
[19] = male, 48 h, individual experiments, read-out: Male worm motility inhibition (EC50), values of independent experiments
[20] = male, 72 h, individual experiments, read-out: Male worm motility inhibition (EC50), values of independent experiments
[21] = values of independent experiments

Sequence of Sm.TRPMPZQ (wild-type) (A0A5K4F0X5 entry or part of it): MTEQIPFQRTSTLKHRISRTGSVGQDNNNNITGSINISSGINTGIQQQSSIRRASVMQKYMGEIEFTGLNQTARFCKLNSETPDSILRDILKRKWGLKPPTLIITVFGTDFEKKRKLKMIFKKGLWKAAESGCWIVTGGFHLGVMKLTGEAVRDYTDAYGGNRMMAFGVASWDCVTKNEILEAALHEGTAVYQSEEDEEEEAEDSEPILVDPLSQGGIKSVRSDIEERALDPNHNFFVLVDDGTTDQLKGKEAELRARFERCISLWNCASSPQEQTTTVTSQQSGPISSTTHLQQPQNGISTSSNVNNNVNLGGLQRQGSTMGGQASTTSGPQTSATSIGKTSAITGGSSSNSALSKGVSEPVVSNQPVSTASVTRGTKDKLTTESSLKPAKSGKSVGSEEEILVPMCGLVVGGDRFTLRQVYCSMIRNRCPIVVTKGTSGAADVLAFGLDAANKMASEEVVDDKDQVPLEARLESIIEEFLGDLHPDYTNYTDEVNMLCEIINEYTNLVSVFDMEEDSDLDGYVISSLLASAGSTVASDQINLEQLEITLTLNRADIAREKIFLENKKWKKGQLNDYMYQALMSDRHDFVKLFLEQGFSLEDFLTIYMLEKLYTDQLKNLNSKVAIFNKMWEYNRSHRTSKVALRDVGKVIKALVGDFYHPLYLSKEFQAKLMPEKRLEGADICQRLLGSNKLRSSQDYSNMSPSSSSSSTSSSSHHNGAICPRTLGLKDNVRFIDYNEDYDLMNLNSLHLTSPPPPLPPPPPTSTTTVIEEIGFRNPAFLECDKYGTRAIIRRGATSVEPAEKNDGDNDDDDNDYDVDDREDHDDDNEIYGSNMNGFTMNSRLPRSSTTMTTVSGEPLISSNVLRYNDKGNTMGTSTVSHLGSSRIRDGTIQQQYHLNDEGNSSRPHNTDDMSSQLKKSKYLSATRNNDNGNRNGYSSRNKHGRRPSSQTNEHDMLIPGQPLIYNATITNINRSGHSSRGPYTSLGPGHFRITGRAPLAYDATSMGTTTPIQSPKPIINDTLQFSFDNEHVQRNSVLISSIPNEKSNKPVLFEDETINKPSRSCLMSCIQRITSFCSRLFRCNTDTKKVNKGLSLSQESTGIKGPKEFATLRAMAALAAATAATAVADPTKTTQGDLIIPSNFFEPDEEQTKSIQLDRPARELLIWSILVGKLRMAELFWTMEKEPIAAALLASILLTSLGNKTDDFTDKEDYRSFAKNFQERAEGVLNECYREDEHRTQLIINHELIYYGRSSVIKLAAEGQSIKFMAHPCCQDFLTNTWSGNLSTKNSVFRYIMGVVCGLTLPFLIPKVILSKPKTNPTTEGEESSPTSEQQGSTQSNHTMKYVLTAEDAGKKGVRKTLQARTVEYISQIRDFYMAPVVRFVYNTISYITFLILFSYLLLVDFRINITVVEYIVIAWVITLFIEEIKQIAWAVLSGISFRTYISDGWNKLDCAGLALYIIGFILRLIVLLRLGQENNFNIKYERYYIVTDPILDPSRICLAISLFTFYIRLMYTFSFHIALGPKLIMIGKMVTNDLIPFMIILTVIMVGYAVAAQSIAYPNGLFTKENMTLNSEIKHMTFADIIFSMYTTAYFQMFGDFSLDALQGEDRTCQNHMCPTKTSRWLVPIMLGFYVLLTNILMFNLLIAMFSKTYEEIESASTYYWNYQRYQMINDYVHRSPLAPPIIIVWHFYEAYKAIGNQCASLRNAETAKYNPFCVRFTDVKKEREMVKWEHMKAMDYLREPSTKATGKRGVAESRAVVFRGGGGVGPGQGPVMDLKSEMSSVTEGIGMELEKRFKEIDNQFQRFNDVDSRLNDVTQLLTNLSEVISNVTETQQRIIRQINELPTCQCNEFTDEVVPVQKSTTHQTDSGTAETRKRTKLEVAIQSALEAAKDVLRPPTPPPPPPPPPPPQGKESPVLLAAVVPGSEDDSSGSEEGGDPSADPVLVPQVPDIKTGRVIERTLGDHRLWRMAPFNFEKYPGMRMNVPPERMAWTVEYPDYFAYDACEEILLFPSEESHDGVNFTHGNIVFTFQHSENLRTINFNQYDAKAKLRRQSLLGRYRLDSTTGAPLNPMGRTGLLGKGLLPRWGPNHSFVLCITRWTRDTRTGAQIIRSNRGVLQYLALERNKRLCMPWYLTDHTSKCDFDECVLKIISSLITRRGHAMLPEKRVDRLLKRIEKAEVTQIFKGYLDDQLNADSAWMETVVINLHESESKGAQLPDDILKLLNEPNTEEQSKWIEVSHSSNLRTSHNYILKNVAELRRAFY
Sequence of Eg.TRPMPZQ (W6UVV9 entry or part of it): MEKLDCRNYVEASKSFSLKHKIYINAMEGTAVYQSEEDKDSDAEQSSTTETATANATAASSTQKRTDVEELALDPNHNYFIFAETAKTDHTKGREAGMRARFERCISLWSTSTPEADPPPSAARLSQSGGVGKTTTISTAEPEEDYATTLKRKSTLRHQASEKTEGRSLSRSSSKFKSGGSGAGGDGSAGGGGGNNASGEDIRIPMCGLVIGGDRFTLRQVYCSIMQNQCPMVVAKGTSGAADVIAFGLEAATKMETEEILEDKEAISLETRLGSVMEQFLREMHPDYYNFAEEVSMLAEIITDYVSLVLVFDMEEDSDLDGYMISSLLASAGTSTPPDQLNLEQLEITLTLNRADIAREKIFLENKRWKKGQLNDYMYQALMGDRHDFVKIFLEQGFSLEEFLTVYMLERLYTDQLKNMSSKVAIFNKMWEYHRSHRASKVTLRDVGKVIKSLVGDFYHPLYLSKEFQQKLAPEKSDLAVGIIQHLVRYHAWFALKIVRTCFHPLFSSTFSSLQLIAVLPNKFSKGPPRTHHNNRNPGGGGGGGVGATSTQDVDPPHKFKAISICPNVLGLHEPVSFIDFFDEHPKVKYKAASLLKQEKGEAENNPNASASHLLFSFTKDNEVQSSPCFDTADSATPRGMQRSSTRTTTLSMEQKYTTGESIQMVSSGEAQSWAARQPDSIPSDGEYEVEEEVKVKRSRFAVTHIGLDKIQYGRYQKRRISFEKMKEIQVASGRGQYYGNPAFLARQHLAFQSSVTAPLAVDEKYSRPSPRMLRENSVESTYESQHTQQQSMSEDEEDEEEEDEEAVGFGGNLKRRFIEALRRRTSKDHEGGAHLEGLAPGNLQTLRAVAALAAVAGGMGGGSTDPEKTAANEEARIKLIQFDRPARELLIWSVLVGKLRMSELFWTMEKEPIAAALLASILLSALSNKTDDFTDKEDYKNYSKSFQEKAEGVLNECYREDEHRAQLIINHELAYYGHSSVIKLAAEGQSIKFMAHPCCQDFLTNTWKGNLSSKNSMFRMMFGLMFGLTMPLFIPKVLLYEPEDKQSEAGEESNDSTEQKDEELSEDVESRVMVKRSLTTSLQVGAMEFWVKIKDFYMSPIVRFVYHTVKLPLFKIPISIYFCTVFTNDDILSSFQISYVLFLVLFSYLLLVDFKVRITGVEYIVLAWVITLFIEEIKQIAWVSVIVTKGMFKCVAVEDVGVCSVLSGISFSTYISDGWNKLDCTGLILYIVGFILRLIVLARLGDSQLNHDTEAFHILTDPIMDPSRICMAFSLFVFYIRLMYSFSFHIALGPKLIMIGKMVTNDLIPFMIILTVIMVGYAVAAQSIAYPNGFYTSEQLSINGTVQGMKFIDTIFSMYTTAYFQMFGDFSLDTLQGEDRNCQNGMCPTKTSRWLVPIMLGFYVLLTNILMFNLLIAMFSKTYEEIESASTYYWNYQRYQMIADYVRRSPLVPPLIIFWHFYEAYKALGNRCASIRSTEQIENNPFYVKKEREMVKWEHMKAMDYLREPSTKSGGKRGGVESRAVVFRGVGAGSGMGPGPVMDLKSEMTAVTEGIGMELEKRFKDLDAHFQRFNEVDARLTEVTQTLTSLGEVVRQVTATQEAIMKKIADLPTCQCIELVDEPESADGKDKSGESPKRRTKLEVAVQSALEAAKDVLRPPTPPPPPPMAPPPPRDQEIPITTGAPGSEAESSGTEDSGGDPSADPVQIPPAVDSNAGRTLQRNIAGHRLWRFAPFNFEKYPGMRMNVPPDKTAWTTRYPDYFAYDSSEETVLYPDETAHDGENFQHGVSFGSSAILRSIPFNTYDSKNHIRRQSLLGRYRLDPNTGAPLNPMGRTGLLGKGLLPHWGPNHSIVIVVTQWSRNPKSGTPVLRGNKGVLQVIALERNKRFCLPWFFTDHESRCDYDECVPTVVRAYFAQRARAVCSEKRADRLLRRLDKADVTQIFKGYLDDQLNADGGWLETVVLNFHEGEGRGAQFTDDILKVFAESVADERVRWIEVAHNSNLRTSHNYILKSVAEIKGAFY

## CCCc1cn(-c2ccc3c(c2)C2CN(C(=O)C4CCCCC4)CC(=O)N2CC3)nn1 (stereo not shown) [Compound 5e]
[1]
  parasite metabolic activity compared to the DMSO control group (XTT): significantly decreased
[2]; [4]
  EC50: 3.5 µM
[2]; Schistosoma mansoni, 0 h, female, 0 h, individual experiments, read-out: Female worm motility inhibition (EC50), values of independent experiments
  EC50: 2.98 µM
[2]; [5]
  EC50: 2.6 µM
[2]; [6]
  EC50: 2.5 µM
[2]; [7]
  EC50: 3.6 µM
[2]; Schistosoma mansoni, 24 h, female, 24 h, individual experiments, read-out: Female worm motility inhibition (EC50), values of independent experiments
  EC50: 3.7 µM
[2]; [8]
  EC50: 2.5 µM
[2]; [9]
  EC50: 2.29 µM
[2]; [10]
  EC50: 3.9 µM
[2]; Schistosoma mansoni, 48 h, female, 48 h, individual experiments, read-out: Female worm motility inhibition (EC50), values of independent experiments
  EC50: 3.14 µM
[2]; [11]
  EC50: 1.9 µM
[2]; Schistosoma mansoni, 48 h, male and female, 48 h, read-out: EC50 against schistosomes (adult motility), span over male and female
  EC50: 1.9 to 3.9 µM
[2]; Schistosoma mansoni, 48 h, male, 48 h, individual experiments, read-out: Male worm motility inhibition (EC50), values of independent experiments
  EC50: 1.7 µM
[2]; [12]
  EC50: 3.1 µM
[2]; Schistosoma mansoni, 72 h, female, 72 h, individual experiments, read-out: Female worm motility inhibition (EC50), values of independent experiments
  EC50: 2.94 µM
[2]; [13]
  EC50: 1.7 µM
[2]; [14]
  EC50: 1.64 µM
[2]; Schistosoma mansoni, female, 0-72 h, read-out: EC50 against female adult worms (motility), span over incubation times
  EC50: 3.1 to 3.9 µM
[2]; [15]
  EC50: 2.78 µM
[2]; [16]
  EC50: 4.77 µM
[2]; female, 72 h, individual experiments, read-out: Female worm motility inhibition (EC50), values of independent experiments
  EC50: 3.3 µM
[2]; [17]
  EC50: 2.68 µM
[2]; [18]
  EC50: 2.32 µM and 2.84 µM
[2]; [19]
  EC50: 2.12 µM and 1.99 µM
[2]; [20]
  EC50: 1.99 µM
In vitro
  CC50 at 48 h: ~300 µM
In vitro; [21]
  CC50 at 48 h: 286 µM
[3]
  Selectivity Index (CC50/EC50), Female: 75.4 and 75
  Selectivity Index (CC50/EC50), Male: 154.7 and 155
[3]; HepG2 vs adult worms, 48 h
  Selectivity Index (SI), sex not specified: > 100
Sm.TRPMPZQ (wild-type)
  EC50: 4.23 ± 0.15 µM
  Emax: 90.2 ± 1.53%
Eg.TRPMPZQ
  Emax: 132 ± 15%
Fh.TRPMPZQ
  activation of Fh.TRPMPZQ: did not activate
Sm.TRPMMCLZ
  activation of Sm.TRPMMCLZ: did not activate
Juvenile schistosomes
  number of juvenile worms with viability score 0: 61
  number of juvenile worms with viability score 1: 7
  number of juvenile worms with viability score 2: 34
  number of juvenile worms with viability score 3: 6
Juvenile schistosomes; Schistosoma mansoni, read-out: Relative frequency of viability score 3
  viability at 10 µM: 5.6%

## [N-]=[N+]=Nc1ccc2c(c1)C1CN(C(=O)C3CCCCC3)CC(=O)N1CC2 (stereo not shown) [Compound 4]
[1]
  parasite metabolic activity compared to the DMSO control group (XTT): significantly decreased
[1]; Schistosoma mansoni, mean ± SD, read-out: juvenile worm viability (XTT, % residual viability)
  viability at 100 µM: 44.6%
[2]; [4]
  EC50: 6.7 µM
[2]; [5]
  EC50: 2.3 µM
[2]; [6]
  EC50: 2.83 µM
[2]; [7]
  EC50: 3.15 µM
[2]; [8]
  EC50: 1.8 µM
[2]; [9]
  EC50: 2.56 µM
[2]; [10]
  EC50: 9.4 µM
[2]; [11]
  EC50: 1.6 µM
[2]; [12]
  EC50: 3.48 µM
[2]; [13]
  EC50: 1.3 µM
[2]; [14]
  EC50: 1.22 µM
[2]; Schistosoma mansoni, male, 0-72 h, read-out: EC50 against male adult worms (motility), span over incubation times
  EC50: 1.3 to 2.3 µM
[2]; female adult worms, 24 h, single experiment or geometric mean, read-out: Female worm motility inhibition (EC50)
  EC50: 3.1 µM
[2]; female adult worms, 72 h, single experiment or geometric mean, read-out: Female worm motility inhibition (EC50)
  EC50: 3.5 µM
[2]; [15]
  EC50: 14.8 µM and 3.02 µM
[2]; [16]
  EC50: 26.8 µM and 3.34 µM
[2]; [17]
  EC50: 1.93 µM
[2]; [18]
  EC50: 1.42 µM and 1.74 µM
[2]; [19]
  EC50: 2.37 µM and 1.1 µM and 1.71 µM
[2]; [20]
  EC50: 1 µM and 1.72 µM
In vitro
  CC50 at 48 h: 156 µM
In vitro; [21]
  CC50 at 48 h: 155 µM
[3]
  Selectivity Index (CC50/EC50), Female: 16.6 and 17
  Selectivity Index (CC50/EC50), Male: 97.7 and 98
Sm.TRPMPZQ (wild-type)
  EC50: 0.89 ± 0.03 µM
  Emax: 80.5 ± 2.19%
Eg.TRPMPZQ
  Emax: 145 ± 14.6%
Fh.TRPMPZQ
  activation of Fh.TRPMPZQ: did not activate
Sm.TRPMMCLZ
  activation of Sm.TRPMMCLZ: did not activate
Juvenile schistosomes
  number of juvenile worms with viability score 0: 48
  number of juvenile worms with viability score 1: 4
  number of juvenile worms with viability score 2: 25
  number of juvenile worms with viability score 3: 12
